Patent publication EP0135194A1, “Azetidinones and their production” (Takeda Chemical Industries, Ltd., priority 1983, dated 1985)
Counter-ions that a name gives are not always drawn.

How the values were obtained:
Test in all cases: MIC by agar dilution method
Type in all cases: cell-based
[1] = test system: Pseudomonas aeruginosa IFO 3455; settings: IFO3455, test organism (5), Trypticase soy agar, about 10^8 CFU/mℓ, overnight at 37°C
Method: (§1) With regard to the objective compounds as obtained in Examples 2 to 5 and 17 to 19, MICs (µg/mℓ) were measured by the method to be described below and the results are tabulated in the following table.
(§2) The MIC of a test compound was determined by the agar dilution method. Thus, 1.0 mℓ each of successively diluted,; aqueous solutions of a test compound are poured in a petri dish, respectively, and then 9.0 mℓ of Trypticase soy agar was poured, followed by mixing. A suspension (about 10^8 CFU/ mℓ) of a test organism was smeared on the mixed agar plates. After incubation overnight at 37°C, the minimum concentration of the test compound to inhibit fully the growth of the test organism is determined as the minimal inhibitory concentration (MIC).
(§3) • (1) Escherchia coli NIHJ JC-2; • (2) Serratia marcescens IFO 12648 • (3) Proteus vulgaris IFO 3988 • (4) Proteus mirabilis IFO 3849 • (5) Pseudomonas aeruginosa IFO 3455 • (6) Enterobacter cloacae IFO 12937

[2] = test system: Escherchia coli NIHJ JC-2; settings: test organism (1); Trypticase soy agar, about 10^8 CFU/mℓ, overnight at 37°C
Method: as §1, §2, §3

[3] = test system: Serratia marcescens IFO 12648; settings: IFO12648, test organism (2), Trypticase soy agar, about 10^8 CFU/mℓ, overnight at 37°C
Method: as §1, §2, §3

[4] = test system: Proteus mirabilis IFO 3849; settings: IFO3849, test organism (4), Trypticase soy agar, about 10^8 CFU/mℓ, overnight at 37°C
Method: as §1, §2, §3

[5] = test system: Proteus vulgaris IFO 3988; settings: IFO3988, test organism (3), Trypticase soy agar, about 10^8 CFU/mℓ, overnight at 37°C
Method: as §1, §2, §3

[6] = test system: Enterobacter cloacae IFO 12937; settings: IFO12937, test organism (6), Trypticase soy agar, about 10^8 CFU/mℓ, overnight at 37°C
Method: as §1, §2, §3

SMILES | MIC [1] [µg/mL] | MIC [2] [µg/mL] | MIC [3] [µg/mL] | MIC [4] [µg/mL] | MIC [5] [µg/mL] | MIC [6] [µg/mL]
NC(=O)OC[C@H]1[C@H](NC(=O)/C(=N\OCC(=O)O)c2csc(N)n2)C(=O)N1OCC(=O)O (relative stereo) [Example 17, trans-3-[2-(2-aminothiazol-4-yl)-(Z)-2-carboxymethoxyiminoacetamido]-4-carbamoyloxymethyl-l-carboxy-methoxy-2-azetidinone disodium salt] | 100 | 0.39 | 0.39 | 0.39 | 0.39 | 0.78
CO/N=C(\C(=O)N[C@@H]1C(=O)N(OCC(=O)O)[C@H]1C)c1csc(N)n1 [Example 2, (3S,4S)-3-[2-aminothiazol-4-yl)-(Z)-2-methoxyiminoacetamido]-1-carboxymethoxy-4-methyl-2-azetidinone monosodium salt] | > 100 | 0.39 | 0.39 | 0.39 | 0.39 | 12.5
CCN1CCN(C(=O)N[C@@H](C(=O)N[C@@H]2C(=O)N(OCC(=O)O)[C@H]2C)c2ccccc2)C(=O)C1=O [Example 4, (3S,4S)-1-carboxymethoxy-3-[(D)-2-(4-ethyl-2,3-dioxopiperazine-1-carbonylamino)-2-phenylacetamido]-4-methyl-2-azetidinone monosodium salt] | 25 | 12.5 | 6.25 | 12.5 | 1.56 | > 100
C[C@H]1[C@H](NC(=O)/C(=N\OCC(=O)O)c2csc(N)n2)C(=O)N1OCC(=O)O [Example 19, (3S,4S)-3-[2-(2-aminothiazol-4-yl)-(Z)-2-carboxymethoxy-iminoacetamido]-1-carboxymethoxy-4-methyl-2-azetidinone disodium salt] | > 100 | 0.39 | 0.39 | 0.39 | 0.39 | 50

These reach a lower MIC [1]. Values come first.

MIC [1] [µg/mL] | MIC [2] [µg/mL] | MIC [3] [µg/mL] | MIC [4] [µg/mL] | MIC [5] [µg/mL] | MIC [6] [µg/mL] | SMILES
12.5 | 0.78 | 0.39 | < 0.1 | < 0.1 | 0.78 | CC(C)(O/N=C(\C(=O)N[C@@H]1C(=O)N(OCC(=O)O)[C@H]1COC(N)=O)c1csc(N)n1)C(=O)O (relative stereo) [Example 18, trans-3-[2-(2-aminothiazol - 4-yl) - (Z) -2-(1-carboxy-1-methylethoxyimino)acetamido]-4-carbamoyloxymethyl-l-carboxymethoxy-2-azetidinone disodium salt]
6.25 | 0.39 | 0.39 | < 0.1 | < 0.1 | 12.5 | C[C@H]1[C@H](NC(=O)/C(=N\OC(C)(C)C(=O)O)c2csc(N)n2)C(=O)N1OCC(=O)O [Example 3, (3S,4S)-3-[2-(2-aminothiazol-4-yl)-(Z)-2-(1-carboxy-1-methylethoxyimino)acetamido]-1-carboxymethoxy-4-methyl-2-azetidinone disodium salt]
6.25 | 0.78 | 1.56 | 1.56 | 0.78 | 50 | CC(C)(O/N=C(\C(=O)N[C@H]1CN(OCC(=O)O)C1=O)c1csc(N)n1)C(=O)O [Example 5, (3S)-3-[2-(2-aminothiazol-4-yl)-(Z)-2-(1-carboxy-1-methylethoxyimino)acetamido]-1-carboxymethoxy-2-azetidinone disodium salt]
